Assay results taken from PubChem BioAssay (NCI).
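Method: 48-hour compound exposure of cells in 96-well plates, five concentrations, linear interpolation of endpoints. TGI: concentration producing complete growth inhibition.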

Legend:
Experiment in all cases: growth of human tumour cells (NCI), 48 h
[1] = system: SK-MEL-2 melanoma
[2] = system: MALME-3M melanoma
[3] = system: HOP-62 NSCLC
[4] = system: HT29 colon
[5] = system: RPMI-8226 leukemia
[6] = system: HCC-2998 colon
[7] = system: M14 melanoma
[8] = system: T-47D breast
[9] = system: ACHN renal
[10] = system: NCI/ADR-RES ovarian
[11] = system: MDA-N
[12] = system: SF-295 CNS
[13] = system: SNB-19 CNS
[14] = system: OVCAR-3 ovarian
[15] = system: HCT-15 colon
[16] = system: SF-268 CNS
[17] = system: SK-OV-3 ovarian
[18] = system: HL-60(TB) leukemia

Cn1c(=O)nc2n(CCO)ccnc-2c1=O
TGI [1]: > 100 µM
TGI [2]: > 100 µM
TGI [3]: > 100 µM
TGI [4]: > 100 µM
TGI [5]: > 100 µM
TGI [6]: > 100 µM
TGI [7]: > 100 µM
TGI [8]: > 100 µM
TGI [9]: > 100 µM
TGI [10]: > 100 µM
TGI [11]: > 100 µM
TGI [12]: > 100 µM
TGI [13]: > 100 µM
TGI [14]: > 100 µM
TGI [15]: > 100 µM
TGI [16]: > 100 µM

O=C(N1CCOCC1)C1(c2ccccc2)CCNCC1
TGI [1]: > 100 µM
TGI [2]: > 100 µM
TGI [3]: > 100 µM
TGI [4]: > 100 µM
TGI [5]: > 100 µM
TGI [7]: > 100 µM
TGI [8]: > 100 µM
TGI [9]: > 100 µM
TGI [10]: > 100 µM
TGI [11]: > 100 µM
TGI [17]: > 100 µM
TGI [12]: > 100 µM
TGI [13]: > 100 µM
TGI [14]: > 100 µM
TGI [15]: > 100 µM
TGI [16]: > 100 µM

Cc1nc2c(O)cccc2c(=O)[nH]1
TGI [1]: > 1000 µM
TGI [2]: > 1000 µM
TGI [3]: > 1000 µM
TGI [4]: > 1000 µM
TGI [5]: > 1000 µM
TGI [6]: > 1000 µM
TGI [18]: 471 µM
TGI [7]: > 1000 µM
TGI [9]: > 1000 µM
TGI [10]: > 1000 µM
TGI [11]: > 1000 µM
TGI [17]: > 1000 µM
TGI [12]: > 1000 µM
TGI [13]: > 1000 µM
TGI [14]: > 1000 µM
TGI [15]: > 1000 µM
TGI [16]: > 1000 µM

Cn1c(=O)cc(NNc2ccc(Br)cc2)[nH]c1=O
TGI [2]: 31.4 µM
TGI [3]: 29.5 µM
TGI [4]: 12.2 µM
TGI [5]: 46 µM
TGI [6]: 13.9 µM
TGI [18]: 7.14 µM
TGI [7]: 33.4 µM
TGI [9]: 29.9 µM
TGI [10]: > 100 µM
TGI [11]: 28.6 µM
TGI [12]: 26.2 µM
TGI [13]: 26.5 µM
TGI [14]: 14.7 µM
TGI [15]: 19.6 µM

Cc1ccc(S(=O)(=O)NC(=O)C2(Br)S(=O)(=O)OCCOS2(=O)=O)cc1
TGI [1]: > 100 µM
TGI [2]: > 100 µM
TGI [3]: > 100 µM
TGI [4]: > 100 µM
TGI [5]: > 100 µM
TGI [6]: > 100 µM
TGI [18]: > 100 µM
TGI [7]: > 100 µM
TGI [9]: > 100 µM
TGI [17]: > 100 µM
TGI [13]: > 100 µM
TGI [14]: > 100 µM
TGI [15]: > 100 µM
TGI [16]: > 100 µM

Cn1c(=O)oc2cc(C(=S)N3CCC(Cc4ccccc4)CC3)ccc21
TGI [1]: > 100 µM
TGI [2]: > 100 µM
TGI [3]: > 100 µM
TGI [4]: > 100 µM
TGI [5]: > 100 µM
TGI [18]: > 100 µM
TGI [7]: > 100 µM
TGI [9]: > 100 µM
TGI [10]: > 100 µM
TGI [11]: > 100 µM
TGI [17]: > 100 µM
TGI [12]: > 100 µM
TGI [13]: > 100 µM
TGI [14]: > 100 µM
TGI [15]: > 100 µM
TGI [16]: > 100 µM

NCCCCC(N)C(=O)N1CCN(c2nc(N3CCCC3)c3nc(Cl)c(NCc4ccccc4)nc3n2)CC1 (stereo not given)
TGI [1]: 35.9 µM
TGI [2]: 43.5 µM
TGI [3]: 29.3 µM
TGI [4]: 38 µM
TGI [5]: 44.4 µM
TGI [6]: 34.7 µM
TGI [18]: 36.1 µM
TGI [7]: 33.9 µM
TGI [9]: 38.1 µM
TGI [10]: > 100 µM
TGI [11]: 33.7 µM
TGI [17]: 37.4 µM
TGI [12]: 35.4 µM
TGI [13]: 33.2 µM
TGI [14]: 36.9 µM
TGI [15]: 35.2 µM
TGI [16]: 45.2 µM
